Source: patent US10118928B2, “Treatment of H. pylori infections using MTAN inhibitors” (ALBERT EINSTEIN COLLEGE OF MEDICINE, INC., priority 2014, dated 2018)

System: H. pylori
Experiment: MIC90 against H. pylori, growth on tryptic soy agar with 5% horse blood
Assay type: cell-based
Parameters: unit not given here
Settings: 72 h, microaerophilic, 37° C.
Procedure: Bacterial Growth. H. pylori were grown for 72 hours under microaerophilic condition (5% O2, 10% CO2 and 85% N2) at 37° C. on tryptic soy agar with 5% horse blood. To determine the MIC values, the test substance was added to the gel solution right before pouring. To compare the zones of inhibition, specific antibiotics were added to the center of disc after spreading H. pylori, and then H. pylori was allowed to grow for 72 hours under microaerophilic condition at 37° C.

CCCC[C@H](CO)NCc1c[nH]c2c(N)ncnc12
MIC90 against H. pylori (Table 1): >80

CCCCCCCCC[C@@H](CO)NCc1c[nH]c2c(N)ncnc12
MIC90 against H. pylori (Table 1): 80

Nc1ncnc2c(CN[C@H](CO)c3ccccc3)c[nH]c12
MIC90 against H. pylori (Table 1): >80

CCCC[C@@H](CO)NCc1c[nH]c2c(N)ncnc12
MIC90 against H. pylori (Table 1): 16

Nc1ncnc2c(CN[C@H](CO)CSCc3ccccc3)c[nH]c12
MIC90 against H. pylori (Table 1): >80

Nc1ncnc2c(CN[C@H](CO)Cc3c[nH]cn3)c[nH]c12
MIC90 against H. pylori (Table 1): >80

CSC[C@@H](CO)NCc1c[nH]c2c(N)ncnc12
MIC90 against H. pylori (Table 1): >80

C[C@@H](CO)NCc1c[nH]c2c(N)ncnc12
MIC90 against H. pylori (Table 1): >80

CC[C@H](C)[C@@H](CO)NCc1c[nH]c2c(N)ncnc12
MIC90 against H. pylori (Table 1): >80

CSC[C@@H](O)[C@@H](CO)NCc1c[nH]c2c(N)ncnc12
MIC90 against H. pylori (Table 1): >80

Nc1ncnc2c(CNCCO)c[nH]c12
MIC90 against H. pylori (Table 2): >80

CCCCCCCCNCc1c[nH]c2c(N)ncnc12
MIC90 against H. pylori (Table 2): >80

CC[C@@H](CO)NCc1c[nH]c2c(N)ncnc12
MIC90 against H. pylori (Table 1): >80

CCCCC[C@@H](CO)NCc1c[nH]c2c(N)ncnc12
MIC90 against H. pylori (Table 1): 8

CSC[C@H](O)[C@H](CO)NCc1c[nH]c2c(N)ncnc12
MIC90 against H. pylori (Table 1): >80

CCCCCCCSC[C@@H](CO)NCc1c[nH]c2c(N)ncnc12
MIC90 against H. pylori (Table 1): 80

CCCCCC[C@@H](CO)NCc1c[nH]c2c(N)ncnc12
MIC90 against H. pylori (Table 1): 8

CCCCSC[C@@H](CO)NCc1c[nH]c2c(N)ncnc12
MIC90 against H. pylori (Table 1): 16

CC(C)C[C@@H](CO)NCc1c[nH]c2c(N)ncnc12
MIC90 against H. pylori (Table 1): >80

Nc1ncnc2c(CN[C@H](CO)CSc3cnccn3)c[nH]c12
MIC90 against H. pylori (Table 1): 8

Nc1ncnc2c(CN[C@H](CO)CSc3ccc(Cl)cc3)c[nH]c12
MIC90 against H. pylori (Table 1): >80

CC(C)[C@@H](CO)NCc1c[nH]c2c(N)ncnc12
MIC90 against H. pylori (Table 1): >80

CSC[C@H](CO)NCc1c[nH]c2c(N)ncnc12
MIC90 against H. pylori (Table 1): >80

CCC[C@@H](CO)NCc1c[nH]c2c(N)ncnc12
MIC90 against H. pylori (Table 1): 40
